Experimental data as given in patent US20140024683A1, “CHLORIDE CHANNEL AND CHLORIDE TRANSPORTER MODULATORS FOR THERAPY IN SMOOTH MUSCLE DISEASES” (priority 2011, published 2014).
pEC50: −log10 of the molar value. Several values for one entry are separate records, joined by “and”; a condition that tells them apart may be missing. Identical values can stand only once. Counter-ions that a name gives are not always drawn. Like-named read-outs stand apart in the source and are kept apart here. Blank lines part the entries; values can stand above or below the compound they belong to.

Tests used:
[1] = test system: rat lung slices; assay: Airway lumen area in peripheral small airways of rat lung slices; settings: contractile agonists
Experimental: The measurement of airway contraction of a luminal area of small lung airways using the ex vivo rat lung slice method was performed as described (Perez-Zoghbi et al., 2007). The trachea was cannulated with an intravenous catheter, and after the chest cavity was opened, the collapsed lungs were reinflated with 1.3±0.1 ml of 2% agarose (low-gelling temperature) in Sigma-Hanks' Balanced Salt solution (sHBSS), followed by the injection of 0.2±0.1 of air to flush the agarose-sHBSS out of the airways and into the distal alveolar space. Subsequently, a warm (37° C.) solution of gelatin (type A, porcine skin, 300 bloom, 6% in sHBSS) was perfused through the intrapulmonary blood vessels via the pulmonary artery by injecting about 0.3 ml into the right ventricle. The warm agar and gelatin were gelled with cold sHBSS. A single lung lobe was removed and cut into serial sections of about 130 μm thick with a vibratome at about 4° C., starting at the lung periphery. Slices were maintained in DMEM (Invitrogen) at 37° C. and 10% CO2 for up to 3 days. At 37° C., the gelatin in the blood vessel lumen dissolved, leaving the blood vessel lumen empty. Lung slices were mounted in a custom-made perfusion chamber and held in place with a small sheet of nylon mesh. A second cover glass edged with silicone grease was placed over the lung slice. Perfusion of the lung slice was performed using a gravity-fed perfusion system. The volume of the chamber was about 100 μl with a perfusion rate of about 800 μl/min. […] Digital images were recorded in time lapse (30 frames/min). The area of the bronchiole and arteriole lumen was calculated, from each image, by pixel summing using custom-written software. Experiments were performed at room temperature.

[2] = test system: human airway smooth muscle cells; assay: FLIPR potentiometric dye membrane potential assay (Examples 9, 12); type: cell-based; settings: 10 μM
Experimental: To determine whether blockade of CaCCs or NKCCs induce membrane potential changes in cultured human airway smooth muscle cells, the FLIPR in vitro fluorescent dye assay (Molecular Devices) was used as described by Wafford et al. (2009). Briefly, human airway smooth muscle cells were grown to 100% confluence in 96-well black-walled plates and were washed with warmed (37° C.) normal-chloride buffer [consisting of (in mM) 130 sodium chloride, 2 CaCl2, 1 MgCl2, 10 D-glucose, and 10 HEPES, pH 7.4] four times. A stock solution (100% dye) of FLIPR blue dye (Molecular Devices) was prepared by reconstitution of 1 vial (125 mg) with 100 ml of the normal-chloride buffer (assay buffer). A 50% working stock was prepared by further diluting the reconstituted blue dye 1:1 with assay buffer and was used to load cells (90 μl/well) over 20 minutes at 37° C. All reagents were dissolved in assay buffer. Baseline fluorescence was measured for 3 minutes prior to the first control additions (assay buffer). […] The fluorescence produced by membrane potential change following solution additions was quantified after subtracting changes induced by assay buffer alone.

[3] = test system: human airway smooth muscle cells; assay: FLIPR membrane potentiometric dye assay (Example 21); type: cell-based
Experimental: Immortalized airway smooth muscle cell lines modified to stably express human telomerase reverse transcriptase were a kind gift from Dr. William Gerthoffer (University of Southern Alabama, Mobile, Ala.) prepared as described previously (Gosens et al., 2006) and grown in Dulbecco's Modified Eagle's Medium/F12 media (GIBCO, Grand Island, N.Y.), with 10% FBS and antibiotics.
Immortalized human airway smooth muscle cells were cultured on black-walled 96 well plates to 100% confluence, and were washed four times with warmed (37° C.) assay buffer of the following composition (in mM): NaCl 140, KCl 4.7, CaCl2 2.5, MgCl2 1.2, HEPES 11, D-glucose 10. A stock solution (100% dye) of FLIPR blue dye was prepared by reconstitution of 1 vial (125 mg) with 100 ml assay buffer. A 50% working stock was prepared by further diluting the reconstituted blue dye 1:1 with assay buffer and was used to load cells (90 μl/well) over 45 min at 37° C. in a humidified cell culture incubator (95% air/5% CO2). All reagents were dissolved in assay buffer. Fluorescence was measured with a Flex Station 3 (Molecular Devices) using an excitation wavelength of 530 nm, emission wavelength of 565 nm and a cutoff filter of 550 nm. Baseline fluorescence was measured every 2 seconds for 1 minute then for 2 minutes after injection of vehicle or compound of interest as indicated (using the Flexstation's 3 integrated injection capabilities).
Human airway smooth muscle cells were incubated with FLIPR membrane potentiometric dye to assess if the chloride channel blockers changed membrane potential at the cellular level. FLIPR fluorescence will increase with depolarization, and decrease with hyperpolarization. […] Therefore, chloride channel blockade, but not NKCC blockade, hyperpolarized human airway smooth muscle cells.

[4] = test system: human airway smooth muscle cells; assay: MQAE fluorescence assay of intracellular chloride; type: cell-based; settings: 10 mM TEA-acetate
Experimental: To determine whether blockade of CaCCs or NKCCs induce changes in intracellular chloride concentrations in human airway smooth muscle cells, the MQAE in vitro fluorescent dye assay (Invitrogen) was used. Briefly, human airway smooth muscle cells were grown to 100% confluence in 96-well black-walled plates. Cells were loaded overnight with 10 mM MQAE in serum-free basal cell culture medium (M199, Invitrogen) and were washed once with warmed (37° C.) normal-chloride buffer [consisting of (in mM) 130 sodium chloride, 2 CaCl2, 1 MgCl2, 10 D-glucose, and 10 HEPES, pH 7.4]. […] An increase in fluorescence represents decreased intracellular chloride (removal of halide quenching of MQAE) while decreased fluorescence represents increased intracellular chloride (enhanced halide quenching of MQAE).

[5] = test system: guinea pig tracheal rings; assay: Relaxation of potassium gluconate contraction in guinea pig tracheal rings; settings: 100 μM; 80 mM potassium gluconate
Experimental: (§1) Animal protocols were approved by the Columbia University Animal Care and Use Committee. Male Hartley guinea pigs weighing approximately 400 g were anesthetized with intraperitoneal injection of sodium pentobarbital (100 mg/kg). Trachea were removed and transferred to ice cold Krebs-Henseleit (KH) buffer of the following composition (in mM): NaCl 118, KCl 5.6, CaCl2 0.5, MgSO4 0.24, NaH2PO4 1.3, NaHCO3 25, glucose 5.6, pH 7.4. Epithelial-denuded tracheal rings were prepared using a dissecting microscope. Epithelium was removed by gently passing cotton fibers through the lumen of the tracheal rings. The rings were suspended in 4 mL-water jacketed organ baths (37° C.: Radnoti Glass Technology, Monrovia, Calif.) and connected to a Grass FT03 force transducer (Grass Telefactor, West Warwick, R.I.) using silk sutures. The transducers were coupled to the computer with BioPac hardware and data was collected using Acqknowledge 7.3.3 software (BioPac Systems, Goleta, Calif.). KH buffer was bubbled with a gas mixture of 95% oxygen and 5% carbon dioxide and buffer was exchanged every 15 minutes for 1 hour during equilibration of tracheal rings at 1 g resting tension. […].
Many chloride channel blockers are known to also stimulate potassium channels (Greenwood et al., 2007). Thus, we performed additional studies in the presence of a large extracellular concentration of potassium to ensure that our findings of compound 1 or 13 inhibiting a TEA-induced depolarizing contraction were not due to these compounds opening a potassium channel.

[6] = test system: guinea pig tracheal rings; assay: Relaxation of TEA contraction in guinea pig tracheal rings (Example 16, library screen); settings: 10 mM TEA
Experimental: as §1

[7] = test system: human airway smooth muscle; assay: Relaxation of acetylcholine contraction in human airway smooth muscle strips; settings: 100 μM alone; EC50 acetylcholine
Experimental: Studies using de-identified human tissue were reviewed by the Columbia University Institutional Review Board and deemed not human subjects research. Tissues were obtained from healthy, normal organ donor discarded surgical waste subsequent to lung transplant surgery. Tissues were collected after transplant and placed in DMEM media (GIBCO) and bubbled overnight in 5% carbon dioxide and 95% oxygen at 4° C. The following morning, the smooth muscle tissue was carefully dissected under a dissecting microscope and the epithelium removed. The strips were anchored in the organ bath as described above using KH buffer of the same composition. The strips were allowed to equilibrate for 1 hour with buffer exchanges every 15 minutes and were treated with 10^−6 M tetrodotoxin, 10^−5 M pyrilamine, and 10^−5
M MK571. Strips were contracted with an EC50 dose of acetylcholine (Ach)
This experiment was then repeated with human airway smooth muscle to investigate clinical relevance as a model of bronchospasm in humans.

[8] = test system: guinea pig tracheal rings; assay: Organ bath muscle force, TEA-induced contraction of guinea pig tracheal rings (Examples 1, 4, 13); settings: for relaxation of TEA-induced contraction: 10 mM TEA
Experimental: Epithelial denuded guinea pig tracheal rings were suspended in organ baths under 1 g resting tension with continuous digital recordings of muscle force. In separate studies, guinea pig airway smooth muscle cells were enzymatically dispersed and cultured.
Human muscle tissue was acquired from excess lung airways trimmed during surgery from healthy lung transplant donors. Acquired tissue was stored overnight at […]. Airway smooth muscle contractions measured ex vivo in organ baths were performed as previously described (Gallos et al., 2008; Gallos et al., 2009, Gallos et al., 2011; Gleason et al., 2010; Yim et al., 2011; Mitzuta et al., 2008). Closed guinea pig tracheal rings or strips of human airway smooth muscle (tracheal or main stem bronchus) were suspended in organ baths, which had 95% oxygen constantly perfusing through Dulbecco's Modified Eagle Medium. Rings were cut on the cartilaginous borders of the smooth muscle. The epithelial layer was dissected under microscopic assistance. Briefly, tissues were suspended in a water-jacketed (37° C.) 2-ml organ bath (Radnoti Glass Technology, Monrovia, Calif.) and attached to a Grass FT03 force transducer (Grass Telefactor, West Warwick, R.I.) coupled to a computer via BioPac hardware and Acqknowledge 7.3.3 software (Biopac Systems, Goleta, Calif.). Kreb's-Henseleit (KH) buffer was continuously bubbled with 95% oxygen and 5% carbon dioxide and tissues were allowed to equilibrate at 1 g (guinea pig) or 1.5 g (human) isotonic force for 1 hour with fresh KH buffer changes every 15 minutes.
Following equilibration, in guinea pig experiments, the capsaicin analog N-vanillylnonanamide (10 μM final) was added to the organ baths to first activate and then deplete nonadrenergic, noncholinergic nerves. […]. In experiments with human tissue, no vanillylnonanamide pretreatment was done. To avoid bias between treatment groups, tissues were contracted to individually calculated EC50 values for acetylcholine and tissues with similar Emax values were randomly assigned to treatments within individual experiments. Following extensive KH buffer changes (8-9 times) tissues were allowed to stabilize at isotonic resting tension (about 1.0 g). To remove confounding effects of other procontractile pathways, each bath received a complement of antagonists 20 minutes prior to subsequent contractile challenge. The antagonists included pyrilamine (10 μM; H1 histamine receptor antagonist), and tetrodotoxin (1 μM; blocker of endogenous cholinergic or C-fiber neuronal effects) in guinea pig experiments or pyrilamine and 10 μM MK571 (leukotriene receptor antagonist) in human tissue experiments. […]
Airway smooth muscle contractions measured ex vivo in organ baths were performed as set forth above. […]

[9] = test system: guinea pig tracheal rings; assay: Potentiation of isoproterenol relaxation of acetylcholine contraction, guinea pig tracheal rings; settings: Cavia porcellus, read-out: EC50 of isoproterenol-mediated relaxation of an acetylcholine contraction
Experimental: as §1
Therefore, we tested whether the chloride channel blockers or modulation of chloride flux could be used in combination with β-agonists to potentiate their effects. […]. Therefore, a combination of treatment with compound 13 and bumetanide potentiated the relaxation effect of isoproterenol.

SMILES: [Cl-].[K+] [KCl, potassium chloride]
percent decrease in lumen area compared to rest [1]: significant decrease in lumen area

SMILES: O=c1[nH]c2cc(C(F)(F)F)ccc2n1-c1cc(C(F)(F)F)ccc1O [NS1619]
membrane potential change (FLIPR) [2]: positive control for hyperpolarization | membrane potential, continuous fluorescence recording (representative tracing) [3]: hyperpolarize

SMILES: CC(=O)[O-].CC[N+](CC)(CC)CC [TEA-acetate, tetraethylammonium (TEA)-acetate]
intracellular chloride (MQAE fluorescence) [4]: decreased intracellular chloride concentrations

SMILES: O=C(O)c1cc(Cl)ccc1NCc1ccc(Cl)cc1 [compound 1, 5-chloro-2-((4-chlorobenzyl)amino)benzoic acid]
percent of potassium gluconate-induced contraction at 30 minutes [5]: 61.46%±6.3 and 61.5%±6.3 | percent of the TEA-induced contraction remaining at 15 minutes ([6]; 100 μM): 23.8±14.9% | relaxed fraction of a TEA-induced contraction at 15 minutes after drug addition ([6]; 100 μM): 76.2% | relaxation of TEA-induced contraction (screen of 20-compound chloride channel blocker library) [6]: most potently relax | time to complete relaxation of TEA contraction ([6]; representative tracing): ≤ 15 min | relaxation of acetylcholine contraction [7]: 45.4%±6.3 | membrane potential, continuous fluorescence recording (representative tracing) [3]: hyperpolarize | change in relative fluorescent units (membrane potential, FLIPR) ([3]; 100 μM, n=12): −240.3+/−35 RFU

SMILES: NS(=O)(=O)c1cc(C(=O)O)c(NCc2ccco2)cc1Cl [furosemide]
relaxation of TEA-induced contraction ([8]; 300 μM furosemide): 77.6%

pEC50 ([9]; vehicle): 8.22 | pEC50 ([9]; with 10 μM bumetanide): 8.60 | pEC50 ([9]; with 50 μM compound 13): 8.57 | pEC50 ([9]; with 50 μM compound 13 and 10 μM bumetanide): 9.32
SMILES: CC(C)NCC(O)c1ccc(O)c(O)c1 (stereo not shown) [isoproterenol]

SMILES: COC(=O)C1=C(C)NC(C)=C(C(=O)OC)C1c1ccccc1[N+](=O)[O-] [nifedipine]
relaxation of TEA-induced contraction ([8]; 10 μM nifedipine): 111%

SMILES: O=C(O)c1cccnc1Nc1cccc(C(F)(F)F)c1 [water-soluble NFA, sodium salt of niflumic acid]
potency at relaxing airway smooth muscle (muscle force at 60 minutes as a percent of initial force after TEA treatment) ([8]; 10 μM, water soluble form compared to hydrophobic parent NFA): enhanced potency
